The subject of test [1] is BxPC3 (human pancreatic cancer cell line) tumor. Description: Pancreatic cancer xenograft model, tumor size by calipers (Example 3). On calculated tumor growth rate, After Avastin: unit not given here. On calculated tumor growth rate, Before Avastin (Day 10): unit not given here. On calculated tumor growth rate, Before Avastin (Day 21): unit not given here. It counts as in vivo, nude mice (nu/nu). The following applies: for tumor size as compared to control: as single agents; for Tumor volume: 20 mg/kg IP Q2d from day 1. On the procedure:
The antitumor activity of combinations of DX-2240 and bevacizumab (anti-VEGF antibody) or sorafenib (multi-kinase inhibitor) were tested in a human tumor xenograft model. BxPC3 (human pancreatic cancer cell line) tumor fragments harvested from host nude mice (nu/nu) bearing subcutaneous BxPC-3 tumors were implanted subcutaneously into female nude mice (study animals) and allowed to form tumors. Mice were pair matched by tumor size and randomized into the various treatment groups when the tumors reached approximately 100 mm^3 (about 18 days following tumor implantation). The animals were assorted into the treatment groups shown in Table 1 (“Start” refers to the day on which treatment was begun). DX-2240 was administered by intraperitoneal (IP) injection at 20 mg/kg; bevacizumab was administered by IP injection at 10 mg/kg, sorafenib was administered orally at 60 mg/kg (for a total of 9 doses), and the control IgG (palivizumab, an antibody of the same isotype as DX-2240) was administered by IP injection at 20 mg/kg at the indicated dosing start dates and dosing regimens. An additional positive control group (group 13) was included: these animals were dosed with gemcitabine at 40 mg/kg Q3d for a total of four doses.
Tumor size was evaluated every three to four days using calipers.

Test [2] concerns DU145 prostate cancer cells. In words: Prostate cancer xenograft model, tumor volume (Example 4). It counts as in vivo, athymic nu/nu mice. The following applies: bevacizumab alone at 12 mg/kg, Q5d. On the procedure: DU145 prostate cancer cells were injected subcutaneously into athymic nu/nu mice and tumors were allowed to form. Animals were assorted into groups of 9-10 mice, then treated with DX-2240 (20 mg/kg by IP injection, […]), an isotype-matched antibody control (A2, 20 mg/kg by IP injection, Q2d), bevacizumab (12 mg/kg by IP injection, […]), DX-2240 20 mg/kg Q2d+bevacizumab (DX-2240 20 mg/kg Q2d+bevacizumab at 12 mg/kg, […], starting at day 25), DX-2240 20 mg/kg Q4d+bevacizumab (DX-2240 20 mg/kg Q4d+bevacizumab at 12 mg/kg, […], starting at day 25), DX-2240 10 mg/kg Q4d+bevacizumab (DX-2240 10 mg/kg Q4d+bevacizumab at 12 mg/kg, […], starting at day 25), DX-2240 5 mg/kg Q4d+bevacizumab (DX-2240 5 mg/kg Q4d+bevacizumab at 12 mg/kg, […], starting at day 25), DX-2240 1 mg/kg Q4d+bevacizumab (DX-2240 1 mg/kg Q4d+bevacizumab at 12 mg/kg, […], starting at day 25), DX-2240+sorafenib (DX-2240 at 20 mg/kg by IP injection, […], sorafenib at 100 mg/kg orally (PO) daily for nine days (QDx9) starting at day 25 and 56), or A2+sorafenib (A2 at 20 mg/kg by IP injection, […], sorafenib 100 mg/kg PO QDx9 starting at day 25 and 56). After day 34, mice in the DX-2240 only and A2 only groups were given an additional agent, and were no longer available as controls for this experiment. Tumor volume was measured twice weekly.

The test system of test [3] is DU 145 human prostate tumor model. In words: DU 145 prostate tumor model, mean tumor volume (Example 6). It counts as in vivo, nude mice (nu/nu). Conditions: 20 mg/kg IP Q2D x17 from day 1. On the procedure: Male nude mice (nu/nu) were injected subcutaneously with DU 145 cells harvested from tissue culture (˜1×10^7 cells/mouse). When tumors grew to approximately 95 mm^3 in size (about 7 days following injection), animals were pair-matched by tumor size into treatment and control groups.
Treatment was initiated after the animals were paired-matched (day 1). Animals in control and treatment groups were dosed by weight (10 ml/kg). DX-2240 and the control IgG (palivizumab) were administered by IP injection either once every other day for seventeen treatments beginning day 1 or once every four days for nine treatments beginning day 1. Sorafenib was dosed per os via gavage once daily for nine treatments beginning day 15. To serve as a control, the control IgG was administered every other day for seventeen treatments beginning day 1. Individual and group mean tumor volumes were recorded twice weekly from day 1 until day 57.

The test system of test [4] is BxPC-3 human pancreas cancer model. Description: BxPC-3 pancreas cancer model, dosing schedules, mean tumor volume (Example 5). It counts as in vivo, nude mice (nu/nu). Conditions: 20 mg/kg IP Q2D x10 from day 1, implanted tumor fragments. The method, then:
Female nude mice (nu/nu) were divided into 14 groups. Animals in groups 1-12 were implanted subcutaneously by trocar with BxPC3 tumor fragments harvested from growing tumors in nude mice hosts. Mice in groups 13-14 were injected subcutaneously with approximately 1×10^7 BxPC-3 cells from tissue culture. When injected tumors grew to approximately 104 mm^3 in size (about 19 days following implantation) and implanted tumors grew to approximately 110 mm^3 in size (about 22 days following implantation) animals were pair-matched by tumor size into treatment and control groups. Animals from groups 1 and 2 were used to evaluate tumor vasculature. Animals from groups 13 and 14 were used to compare effects of DX-2240 on tumors formed from cell injection.
Treatment was initiated after the animals were pair-matched (day 1). Animals in all groups were dosed by weight (10 ml/kg). The control IgG and DX-2240 were administered by IP injection at 20 mg/kg, and bevacizumab and the rat α-mouse VEGF IgG antibody were administered by IP injection at 10 mg/kg once every three days. Dosing was initiated on day −3, 1, 5, 6, 10 or 20.
Individual and group mean tumor volumes were recorded twice weekly from day 1 until day 39.

The next test concerns the target Tie1 (Homo sapiens, UniProt P35590). The following applies: cited from earlier work.
For another test, the system named is tumor vasculature. In words: Lectin staining of tumors (tumor vasculature, Example 5). On lectin staining, High intensity (3+): unit not given here. On lectin staining, Low intensity (1+): unit not given here. On lectin staining, Medium intensity (2+): unit not given here. Conditions: for lectin staining, High intensity (3+) / lectin staining, Low intensity (1+) / lectin staining, Medium intensity (2+): 20 mg/kg IP Q2D from day 1, BxPC3 tumors. It counts as in vivo, nude mice (nu/nu). The method, then:
To determine changes in tumor vasculature, three animals from each of groups 1 and 2 were randomly selected for destructive sample collection, including tumor and serum on days 5, 10, 15, and 20. Animals were injected IV with 150 μL of a biotinylated-lectin solution (no injections on day 5 and 15). Five minutes later, animals were perfused by intracardiac injection with a 1% paraformaldehyde solution in PBS for 3 minutes. Tumors were then collected, placed in the perfusion solution, and sent immediately for analysis. Blood was collected by cardiac puncture and serum extracted, flash frozen in liquid nitrogen, and stored at −80° C.

Chain of Tie1 (P35590 22-1138): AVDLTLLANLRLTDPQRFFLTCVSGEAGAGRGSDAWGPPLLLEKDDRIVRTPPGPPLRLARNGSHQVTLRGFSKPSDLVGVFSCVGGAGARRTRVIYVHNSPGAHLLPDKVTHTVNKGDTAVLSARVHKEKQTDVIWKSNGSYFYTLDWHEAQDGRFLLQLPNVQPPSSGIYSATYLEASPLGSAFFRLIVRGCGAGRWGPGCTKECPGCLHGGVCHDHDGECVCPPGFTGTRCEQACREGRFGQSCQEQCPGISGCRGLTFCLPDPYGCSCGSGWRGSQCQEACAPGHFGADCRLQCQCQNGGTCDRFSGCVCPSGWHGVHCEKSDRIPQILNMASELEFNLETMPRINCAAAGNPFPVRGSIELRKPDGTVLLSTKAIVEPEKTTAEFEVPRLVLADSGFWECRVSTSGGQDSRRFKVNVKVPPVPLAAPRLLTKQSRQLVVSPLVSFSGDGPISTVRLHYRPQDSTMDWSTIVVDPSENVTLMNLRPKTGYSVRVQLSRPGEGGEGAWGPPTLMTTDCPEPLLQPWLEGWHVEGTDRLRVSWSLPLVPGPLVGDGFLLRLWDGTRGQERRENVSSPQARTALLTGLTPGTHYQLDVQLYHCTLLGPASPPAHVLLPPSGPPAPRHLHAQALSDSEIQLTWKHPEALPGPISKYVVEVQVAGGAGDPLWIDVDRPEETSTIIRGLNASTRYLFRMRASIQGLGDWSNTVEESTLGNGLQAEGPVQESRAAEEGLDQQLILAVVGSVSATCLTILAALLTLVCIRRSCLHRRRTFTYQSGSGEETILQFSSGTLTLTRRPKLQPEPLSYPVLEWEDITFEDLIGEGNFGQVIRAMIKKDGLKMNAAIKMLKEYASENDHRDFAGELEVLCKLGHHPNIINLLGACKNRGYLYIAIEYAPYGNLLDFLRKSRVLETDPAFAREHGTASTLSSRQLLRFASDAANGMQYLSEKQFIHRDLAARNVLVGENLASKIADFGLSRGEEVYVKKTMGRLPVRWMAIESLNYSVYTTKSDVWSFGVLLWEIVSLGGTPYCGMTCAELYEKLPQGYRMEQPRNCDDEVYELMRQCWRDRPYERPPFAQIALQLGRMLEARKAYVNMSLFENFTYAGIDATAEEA

Regarding bevacizumab: anti-VEGF antibody, the “tumor size as compared to control” value in test [1] was “reduced tumor size”. Moreover, the tumor size entry in test [2] is recorded as “tumor shrinkage”.

As for “DX-2240: Germlined F allotyped E3 antibody, Tie1 ectodomain-binding (SEQ ID NO:10-13)”, the mean tumor volume came out at 94.6 mm^3 in test [3] (day 1); 162.6 mm^3 in test [3] (day 5); 269.3 mm^3 in test [3] (day 9); 417.3 mm^3 in test [3] (day 13); 460.0 mm^3 in test [3] (day 15); 553.9 mm^3 in test [3] (day 19). Moreover, the mean tumor volume worked out at 644.4 mm^3 in test [3] (day 23); 707.1 mm^3 in test [3] (day 26); 737.8 mm^3 in test [3] (day 29); 866.7 mm^3 in test [3] (day 33); 1008.3 mm^3 in test [3] (day 36); 107.7 mm^3 in test [4] (day 1). The mean tumor volume was determined as 157.7 mm^3 in test [4] (day 4); 194.2 mm^3 in test [4] (day 8); 199.0 mm^3 in test [4] (day 11); 308.7 mm^3 in test [4] (day 15); 289.1 mm^3 in test [4] (day 18). Besides, the “calculated tumor growth rate, After Avastin” value in test [1] (DX-2240 or control IgG 20 mg/kg IP Q2d from day 1, after bevacizumab 10 mg/kg IP Q3d (twenty day pretreatment groups)) is listed as 18.6 ± 8.0; in test [1] (DX-2240 or control IgG 20 mg/kg IP Q2d from day 1, after bevacizumab 10 mg/kg IP Q3d started at day 10) it was 12.2 ± 3.3. The “calculated tumor growth rate, Before Avastin (Day 21)” value in test [1] (DX-2240 or control IgG 20 mg/kg IP Q2d from day 1, before bevacizumab (twenty day pretreatment groups)) is listed as 23.1 ± 6.6. For the same substance, in test [1] (DX-2240 or control IgG 20 mg/kg IP Q2d from day 1, before bevacizumab start at day 10), the “calculated tumor growth rate, Before Avastin (Day 10)” value was 23.9 ± 4.9. Moreover, the “# of stable tumor growths or tumor regressions” value in test [1] (DX-2240 or control IgG from day 1, bevacizumab (Avastin) after twenty day pretreatment) was 2/8; in test [1] (DX-2240 or control IgG from day 1, bevacizumab (Avastin) from day 10) it was 1/6. Besides, the “tumor size as compared to control” value in test [1] is on record as “reduced tumor size”. Besides, the Tumor volume in test [1] (day 1) came to 105.6 mm^3; in test [1] (day 3), 139.9 mm^3; in test [1] (day 7), 223.1 mm^3; in test [1] (day 10), 331.6 mm^3; in test [1] (day 14) it was 460.5 mm^3; in test [1] (day 21), 724.4 mm^3. The Tumor volume in test [1] (day 24) is 954.1 mm^3; in test [1] (day 28), 1171.1 mm^3; in test [1] (day 31), 1351.4 mm^3. For the same substance, the Tie1 tyrosine phosphorylation entry with Tie1 was “induce”. Also, the Tie complex formation result with Tie1 is given as “induce”. Further, in the test with Tie1, the “down modulation of Tie1 from the cell surface” value is recorded as “induce”. For the same substance, the “Tie1/Tie2 heterodimers on the surface of cells expressing Tie1 and Tie2” value with Tie1 (e.g., endothelial cells) is “down-modulation”. Further, in the test on tumor vasculature (DX-2240 20 mg/kg IP Q2D), the “lectin staining of tumors as compared to control animals” value is “less lectin staining”. Moreover, the functional tumor vasculature entry in the test on tumor vasculature (DX-2240-treated animals) was “less functional tumor vasculature”. The entries for the “lectin staining, High intensity (3+)” value in the test on tumor vasculature (Day 10) and in the test with tumor vasculature (Day 20) were 92134 and 5922, respectively. The “lectin staining, Low intensity (1+)” value is 909706 with tumor vasculature (Day 10) and 122022 in the test with tumor vasculature (Day 20). The “lectin staining, Medium intensity (2+)” value is recorded as 3468512 with tumor vasculature (Day 10) and 205406 in the test with tumor vasculature (Day 20).

The record behind these values is US20080160019A1, “SEQUENTIAL COMBINATION THERAPY” (DYAX CORP., priority 2006, published 2008).
